The source of these data is US20240383845A1, “NAPHTHALENEDITHIOL AND DERIVATIVE THEREOF, AND PRODUCTION PROCESS AND USE FOR THE SAME” (SUGAI CHEMICAL INDUSTRY CO., LTD., priority 2021, published 2024).

The nature of series [1]: Dissolubility or compatibility (maximum dissolved concentration, HPLC). It counts as physicochemical. The settings on record: for Dissolubility, Ethyl acetate / Dissolubility, MMA / Dissolubility, PGMEA / Dissolubility, Styrene / Dissolubility, Toluene / Dissolubility, DMF / Dissolubility, THF / Dissolubility, Methanol: 25° C.; for Dissolubility, MMA: methyl methacrylate; for Dissolubility, PGMEA: propylene glycol monomethyl ether acetate; for Dissolubility, DMF: N,N-dimethylformamide; for Dissolubility, THF: tetrahydrofuran. The protocol: In more detail, the sample was added to a predetermined amount of a solvent or a polymerizable component until the sample was no longer dissolved, and the sample content of the liquid layer (the solvent layer) of the resulting mixture was analyzed using an HPLC (“SPD-20A” manufactured by SHIMADZU CORPORATION), and thus the concentration (the maximum dissolved concentration) of the sample in the liquid layer (the solvent layer) was determined as a solubility.

The nature of series [2]: Refractive index (abbe refractometer). Type of series: physicochemical. To be noted: 25° C., 589 nm, value at 100% by mass by extrapolation. On the procedure:
The refractive index of each sample was measured using an abbe refractometer (“NAR-lT” manufactured by ATAGO CO., LTD.) at a temperature of 25° C. and a wavelength of 589 nm. Depending on the species of each sample, the refractive index was measured as follows.
For the after-mentioned 16NDSH, 15NDSH, 26NDSH and 27NDSH; 15DGNDSH; 15DHENDSH; 16DMNDSH and 15DMNDSH; and 16DCNDSH and 15DCNDSH, a sample was dissolved in 1,3-dimethyl-2-imidazolidinone (DMI) to prepare multiple solutions with different concentrations, and the refractive index of each solution was measured at a temperature of 25° C. and a wavelength of 589 nm. From the results of the refractive index at each concentration, the refractive index value at 100% by mass of the concentration was determined by extrapolation.
For the after-mentioned 16NDSHMA, 15NDSHMA, 26NDSHMA and 27NDSHMA; 16NDSHA and 15NDSHA; 15DANDSH; and 15DVNDSH, polymerization may occur during the mixing, and thus a sample was dissolved in a methoquinone/DMI solution (a solution containing 4000 ppm of methoquinone relative to the mass of DMI) to prepare multiple solutions with different concentrations. The refractive index of each solution was measured at a temperature of 25° C. and a wavelength of 589 nm. From the results of the refractive index at each concentration, the refractive index value at 100% by mass of the concentration was determined by extrapolation.
For the after-mentioned 16DANDSH; 16DVNDSH; 16DGNDSH; and 16DHENDSH, a sample was liquid for a while after preparation, and thus the refractive index was measured in the state of an undiluted solution. Further, thiol-ene-based resins (thiol-ene-based resins obtained from 16NDSH or 15NDSH and divinylbenzene) were measured in the same manner. […]

The mark [3] stands for this setting: DMI solutions of different concentrations.

As usually defined, the melting point is the temperature of the solid-liquid transition. `C=CCSc1cccc2c(SCC=C)cccc12` [Example 15DANDSH, 1,5-bis(allylthio)naphthalene] gave a melting point of 78 to 79 °C. Also, in series [1], the “Dissolubility, Ethyl acetate” value was 16.4 % by mass; the “Dissolubility, MMA” value is 26.6 % by mass; the “Dissolubility, PGMEA” value is 13.7 % by mass; the “Dissolubility, Styrene” value is reported as 10.6 % by mass. For the same compound, the “Dissolubility, Toluene” value in series [1] is 26.1 % by mass. In series [2] (methoquinone/DMI solutions), the Refractive index is recorded as 1.653.
For `c1cc(SCC2CO2)c2cccc(SCC3CO3)c2c1` (stereo not shown) [Example 15DGNDSH, 1,5-bis(glycidylthio)naphthalene], the melting point was 50 to 53 °C. In series [1], the “Dissolubility, Ethyl acetate” value worked out at 51.9 % by mass; the “Dissolubility, MMA” value is 60.9 % by mass; the “Dissolubility, PGMEA” value was determined as 62.3 % by mass; the “Dissolubility, Styrene” value worked out at 43.6 % by mass. Also, the “Dissolubility, Toluene” value in series [1] amounted to 56.8 % by mass. For the same compound, the Refractive index in series [2] (setting [3]) is 1.621.
For `OCCSc1cccc2c(SCCO)cccc12` [Example 15DHENDSH, 1,5-bis(2-hydroxyethylthio)naphthalene], the melting point lay within 84 to 86 °C. Moreover, in series [1], the “Dissolubility, Ethyl acetate” value was 3.01 % by mass; the “Dissolubility, MMA” value is on record as 34.7 % by mass; the “Dissolubility, PGMEA” value is reported as 3.60 % by mass; the “Dissolubility, Styrene” value is given as 0.35 % by mass. Besides, the “Dissolubility, Toluene” value in series [1] was 0.19 % by mass. For the same compound, the Refractive index in series [2] (setting [3]) is reported as 1.668.
`CSc1cccc2c(SC)cccc12` [Example 15DMNDSH, 1,5-bis(methylthio)naphthalene] came in with a melting point of 149 to 151 °C. For the same compound, in series [1], the “Dissolubility, Ethyl acetate” value is reported as 1.25 % by mass; the “Dissolubility, MMA” value came out at 1.44 % by mass; the “Dissolubility, PGMEA” value worked out at 1.25 % by mass; the “Dissolubility, Styrene” value came to 3.13 % by mass. Besides, the “Dissolubility, Toluene” value in series [1] amounted to 2.36 % by mass. Besides, the saturation solubility entry in series [1] (in PMMA resin composition) was “about 10 % by mass”. The Refractive index in series [2] (setting [3]) is 1.690.
`C=CSc1cccc2c(SC=C)cccc12` [Example 15DVNDSH, 1,5-bis(vinylthio)naphthalene] gave a melting point of 50 to 52 °C. Further, in series [1], the “Dissolubility, Ethyl acetate” value is reported as 39.0 % by mass; the “Dissolubility, MMA” value was 43.6 % by mass; the “Dissolubility, PGMEA” value came out at 26.3 % by mass; the “Dissolubility, Styrene” value is 45.8 % by mass. The “Dissolubility, Toluene” value in series [1] is given as 59.6 % by mass. In addition, the Refractive index in series [2] (methoquinone/DMI solutions) is 1.685.
Take `C=CC(=O)Sc1cccc2c(SC(=O)C=C)cccc12` [Example 15NDSHA, 1,5-bis(acryloylthio)naphthalene]: the melting point was 156 to 158 °C. Further, in series [1], the “Dissolubility, Ethyl acetate” value stood at 1.57 % by mass; the “Dissolubility, MMA” value amounted to 1.93 % by mass; the “Dissolubility, PGMEA” value was 1.50 % by mass; the “Dissolubility, Styrene” value is recorded as 4.24 % by mass. Further, in series [1], the “Dissolubility, Toluene” value is given as 2.61 % by mass. Also, in series [2] (methoquinone/DMI solutions), the Refractive index is 1.646.
For `O=C(O)CSc1ccc2c(SCC(=O)O)cccc2c1` [Example 16DCNDSH, 1,6-bis(carboxymethylthio)naphthalene], the melting point is 176 to 178 °C. Besides, in series [1], the “Dissolubility, DMF” value came to 61.0 % by mass; the “Dissolubility, Ethyl acetate” value is on record as 0.56 % by mass; the “Dissolubility, MMA” value was 0.14 % by mass; the “Dissolubility, PGMEA” value is given as 0.98 % by mass. Besides, the “Dissolubility, THF” value in series [1] is 30.5 % by mass. Besides, the Refractive index in series [2] (setting [3]) was 1.663.
`CSc1ccc2c(SC)cccc2c1` [Example 16DMNDSH, 1,6-bis(methylthio)naphthalene]: the melting point was in the range of 52 to 53 °C. In addition, in series [1], the “Dissolubility, Ethyl acetate” value is on record as “Freely blended (>90) % by mass”; the “Dissolubility, MMA” value was 62.3 % by mass; the “Dissolubility, PGMEA” value is 42.3 % by mass; the “Dissolubility, Styrene” value worked out at 68.7 % by mass. Also, the “Dissolubility, Toluene” value in series [1] is “Freely blended (>90) % by mass”. Further, the Refractive index in series [2] (setting [3]) is given as 1.690.
Take `Sc1ccc2c(S)cccc2c1` [Example 16NDSH, 1,6-naphthalenedithiol]: the “Dissolubility, Methanol” value in series [1] was 19.3 % by mass. In addition, the Refractive index in series [2] (setting [3]) is reported as 1.722.
Turning to `C=CC(=O)Sc1ccc2c(SC(=O)C=C)cccc2c1` [Example 16NDSHA, 1,6-bis(acryloylthio)naphthalene], the melting point was 64 to 66 °C. Moreover, in series [1], the “Dissolubility, Ethyl acetate” value is 56.3 % by mass; the “Dissolubility, MMA” value was 55.7 % by mass; the “Dissolubility, PGMEA” value is 44.3 % by mass; the “Dissolubility, Styrene” value came to 59.4 % by mass. The “Dissolubility, Toluene” value in series [1] amounted to 58.4 % by mass. In series [2] (methoquinone/DMI solutions), the Refractive index is on record as 1.667.
As for `C=C(C)C(=O)Sc1ccc2c(SC(=O)C(=C)C)cccc2c1` [Example 16NDSHMA, 1,6-bis(methacryloylthio)naphthalene], in series [1], the “Dissolubility, DMF” value was found to be 59.5 % by mass; the “Dissolubility, Ethyl acetate” value was found to be 44.6 % by mass; the “Dissolubility, Methanol” value was 2.49 % by mass; the “Dissolubility, MMA” value was 44.1 % by mass. In addition, in series [1], the “Dissolubility, PGMEA” value was 31.1 % by mass; the “Dissolubility, Styrene” value is 51.1 % by mass; the “Dissolubility, THF” value was 67.6 % by mass; the “Dissolubility, Toluene” value is on record as 50.7 % by mass. In addition, the Refractive index in series [2] (methoquinone/DMI solutions) is listed as 1.647.
Turning to `Sc1ccc2cc(S)ccc2c1` [Example 26NDSH, 2,6-naphthalenedithiol], the melting point fell in the range of 196 to 197 °C. For the same compound, in series [1], the “Dissolubility, DMF” value was found to be 3.54 % by mass; the “Dissolubility, Ethyl acetate” value worked out at 0.65 % by mass; the “Dissolubility, Methanol” value came to 0.11 % by mass; the “Dissolubility, PGMEA” value is recorded as 0.73 % by mass. Further, in series [1], the “Dissolubility, THF” value was found to be 4.03 % by mass and the “Dissolubility, Toluene” value worked out at 0.64 % by mass. The Refractive index in series [2] (setting [3]) is 1.718.
As to `C=C(C)C(=O)Sc1ccc2cc(SC(=O)C(=C)C)ccc2c1` [Example 26NDSHMA, 2,6-bis(methacryloylthio)naphthalene], in series [1], the “Dissolubility, DMF” value is 4.59 % by mass; the “Dissolubility, Ethyl acetate” value is on record as 1.08 % by mass; the “Dissolubility, Methanol” value turned out to be 0.13 % by mass; the “Dissolubility, MMA” value was determined as 2.42 % by mass. In series [1], the “Dissolubility, PGMEA” value came to 1.46 % by mass; the “Dissolubility, Styrene” value is recorded as 5.00 % by mass; the “Dissolubility, THF” value was found to be 9.59 % by mass; the “Dissolubility, Toluene” value was 3.73 % by mass. For the same compound, the Refractive index in series [2] (methoquinone/DMI solutions) is 1.651.
`Sc1ccc2ccc(S)cc2c1` [Example 27NDSH, 2,7-naphthalenedithiol]: the melting point lay within 186 to 188 °C. For the same compound, in series [1], the “Dissolubility, DMF” value was 7.75 % by mass; the “Dissolubility, Ethyl acetate” value is given as 0.90 % by mass; the “Dissolubility, Methanol” value worked out at 0.16 % by mass; the “Dissolubility, PGMEA” value is reported as 1.05 % by mass. Moreover, in series [1], the “Dissolubility, THF” value turned out to be 5.24 % by mass and the “Dissolubility, Toluene” value is on record as 0.76 % by mass. The Refractive index in series [2] (setting [3]) was 1.721.
For `C=C(C)C(=O)Sc1ccc2ccc(SC(=O)C(=C)C)cc2c1` [Example 27NDSHMA, 2,7-bis(methacryloylthio)naphthalene], in series [1], the “Dissolubility, DMF” value amounted to 17.5 % by mass; the “Dissolubility, Ethyl acetate” value is recorded as 3.20 % by mass; the “Dissolubility, Methanol” value stood at 0.20 % by mass; the “Dissolubility, MMA” value is on record as 4.36 % by mass. In series [1], the “Dissolubility, PGMEA” value was found to be 2.68 % by mass; the “Dissolubility, Styrene” value is 7.92 % by mass; the “Dissolubility, THF” value was 13.1 % by mass; the “Dissolubility, Toluene” value was 6.84 % by mass. For the same compound, in series [2] (methoquinone/DMI solutions), the Refractive index is reported as 1.649.
